From patent publication US11219632B2, “Skin pigmentation inhibitor” (Oriental Yeast Co., Ltd., priority 2017, dated 2022)

Legend:
Format in all cases: in vivo, brown guinea pig
[1] = Body weight of brown guinea pigs during oral β-NMN administration (Example 1); details: for Body weight: oral 500 mg/kg
Description: (§1) First, six brown guinea pigs were divided into a group administered β-NMN (NMN group) and a group administered injection water (control group). A day performed this group dividing was considered day 0 of administration, and from the next day, the β-NMN solution or injection water was orally administered to the guinea pigs of each group once a day for 42 days. The β-NMN solution was administered at a dosage of 500 mg/kg body weight.
A body weight of each guinea pig was measured with an electronic balance in the morning once a week from the first administration day. The measurement was performed before the irradiation on the irradiation day, and before the administration on the β-NMN administration day.

[2] = system: pigmentation induced by ultraviolet; assay: Ultraviolet-induced skin pigmentation in brown guinea pigs, oral and transdermal β-NMN (Example 2); details: for ΔL value at ultraviolet irradiation site: 28 days from first irradiation
From the text: (§2) Brown guinea pigs (Kw1: line A-1, supplied from Kiwa Laboratory Animals Co., Ltd.) used for the subsequent experiment were bred under SPF environment throughout the entire experimental period. As in a case of humans, it is known that pigmentation of the brown guinea pigs of Kw1: line A-1 is caused by ultraviolet irradiation.
(§3) First, an unanesthetized brown guinea pig was fixed on a fixed plate in an abdominal position, and the back skin was sheared with an electric hair clipper and shaved with an electric shaver. Among the shaved area of the back skin, a region obtained by cutting out a region corresponding to the irradiation site by attaching a tape for bookbinding to an adhesive fabric stretchable bandage (ELASTOPORE No. 50, Nichiban Co., Ltd.) was attached on a site other than the ultraviolet irradiation site, and thereby the region other than the radiation site was light-shielded. Further, the eyes of the guinea pig were also light-shielded from ultraviolet by attaching lint cloth with the adhesive fabric stretchable bandage. Thereafter, ultraviolet (UVB) irradiation was performed from a distance of 40 cm using five SE lamps (wavelength of 250 to 350 nm, FL20S E, Toshiba Corporation) attached to an ultraviolet irradiation apparatus (Y-798-II, Orion Electric Co., Ltd.).
(§4) Regarding oral administration, a solution in which β-NMN (Oriental Yeast Co., Ltd.) was dissolved in injection water (Otsuka Pharmaceutical Factory, Inc.) was orally administered forcedly using a disposable syringe made of polypropylene (Terumo Corporation) attached with a catheter (a nutrition catheter manufactured by JMS Co., Ltd.). […] A dosage was calculated from a body weight value on an administration day or a day close to the administration day, and the dosage was 5 mL/kg.
Effects of β-NMN on pigmentation induced by ultraviolet were examined using brown guinea pigs.
Ethanol (lot number: DSM5187, Wako Chemical Co., Ltd.), 1,3-butanediol (lot number: TWQ 6672, Wako Pure Chemical Industries, Ltd.), and injection water (lot number: K5F71, Otsuka Pharmaceutical Factory, Inc.) were mixed at a ratio of 1:1:8 (a volume ratio), and used as a solvent. A solution dissolved β-NMN in this solvent at a concentration of 0.5% by mass was used as a β-NMN-containing external preparation.
First, six brown guinea pigs were divided into a group orally administered β-NMN and a group not administered β-NMN. […]

[3] = system: pigmentation induced by ultraviolet; assay: Ultraviolet-induced skin pigmentation in brown guinea pigs, oral β-NMN (Example 1); details: for ΔL value at ultraviolet irradiation site: oral 500 mg/kg body weight once a day
From the text: as §2, §3, §4
Effects of […] on pigmentation induced by ultraviolet were examined using brown guinea pigs.
as §1, with “weight. […]” for “weight.”
(Measurement of pigmentation) L values (brightness) of the skin of the ultraviolet irradiation site of each guinea pig were measured by using Chroma Meter (CR-300, Konica Minolta, Inc.) on the first irradiation day (day 0), and on days 14, 21, and 28. […] On days 0, 14 and 21, L values were measured before the ultraviolet irradiation, and on day 28, L values were measured in the morning. […]

Structure (SMILES): NC(=O)c1ccc[n+]([C@@H]2O[C@H](COP(=O)([O-])O)[C@@H](O)[C@H]2O)c1 [NMN, Nicotinamide mononucleotide]
- Body weight ([1]; 0 days after first administration): 405 ± 22 g
- Body weight ([1]; 1 day after first administration): 408 ± 23 g
- Body weight ([1]; 8 days after first administration): 431 ± 23 g
- Body weight ([1]; 15 days after first administration): 462 ± 33 g
- Body weight ([1]; 22 days after first administration): 497 ± 34 g
- Body weight ([1]; 29 days after first administration): 529 ± 29 g
- Body weight ([1]; 36 days after first administration): 551 ± 35 g
- Body weight ([1]; 43 days after first administration): 584 ± 33 g
- Body weight difference versus control group ([1]; oral 500 mg/kg once a day for 42 days): no significant difference in body weight
- ΔL value at ultraviolet irradiation site ([2]; NMN oral administration group (oral 500 mg/kg, solvent only on skin)): 6.01
- ΔL value at ultraviolet irradiation site ([2]; NMN transdermal & oral administration group (oral 500 mg/kg plus 0.05 mL of 0.5% by mass external preparation per site)): 5.20
- Pigmentation compared with the control group ([2]; oral administration only): pigmentation was inhibited
- Pigmentation compared with only oral administration ([2]; transdermal administration in addition to oral administration): pigmentation was further inhibited
- ΔL value at ultraviolet irradiation site ([3]; day 14 after first irradiation): 8.28
- ΔL value at ultraviolet irradiation site ([3]; day 21 after first irradiation): 8.99
- ΔL value at ultraviolet irradiation site ([3]; day 28 after first irradiation): 9.55
- Pigmentation compared to the control group ([3]; oral 500 mg/kg body weight once a day for 42 days): pigmentation was inhibited
